For the assay, the target named is T1, TRPC5 (Homo sapiens, UniProt Q9UL62).
T1 construct: expressed in transfected cells; host or cells: HEK293
T1 sequence (Q9UL62 1-973): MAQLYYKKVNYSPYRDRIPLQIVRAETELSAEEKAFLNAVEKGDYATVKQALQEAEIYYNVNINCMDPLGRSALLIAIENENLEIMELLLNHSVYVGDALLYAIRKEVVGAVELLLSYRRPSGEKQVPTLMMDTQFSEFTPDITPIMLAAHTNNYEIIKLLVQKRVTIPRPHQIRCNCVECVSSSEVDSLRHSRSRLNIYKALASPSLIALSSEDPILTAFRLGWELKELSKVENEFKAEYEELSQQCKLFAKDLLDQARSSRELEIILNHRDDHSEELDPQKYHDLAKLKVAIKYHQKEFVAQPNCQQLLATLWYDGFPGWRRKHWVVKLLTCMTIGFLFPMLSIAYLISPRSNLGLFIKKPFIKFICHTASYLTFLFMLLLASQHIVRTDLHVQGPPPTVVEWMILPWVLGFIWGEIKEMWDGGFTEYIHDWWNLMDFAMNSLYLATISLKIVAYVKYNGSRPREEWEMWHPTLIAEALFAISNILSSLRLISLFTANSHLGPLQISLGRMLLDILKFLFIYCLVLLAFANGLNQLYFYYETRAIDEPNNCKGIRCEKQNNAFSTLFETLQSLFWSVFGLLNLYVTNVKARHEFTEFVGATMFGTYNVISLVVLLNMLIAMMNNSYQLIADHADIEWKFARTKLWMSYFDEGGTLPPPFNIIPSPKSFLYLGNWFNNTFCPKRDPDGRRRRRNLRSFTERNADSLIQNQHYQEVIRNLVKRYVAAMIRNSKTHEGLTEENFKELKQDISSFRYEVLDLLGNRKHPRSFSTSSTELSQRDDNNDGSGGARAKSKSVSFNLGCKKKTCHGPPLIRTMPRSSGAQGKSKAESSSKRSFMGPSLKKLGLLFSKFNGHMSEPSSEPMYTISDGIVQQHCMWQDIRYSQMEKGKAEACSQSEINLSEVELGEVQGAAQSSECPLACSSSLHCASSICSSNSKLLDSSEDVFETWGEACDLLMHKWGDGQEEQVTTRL
The assay can be described thus: HEK293 whole-cell patch clamp recording, TRPC5 inhibition assay. It is filed as cell-based. Particulars: for IC50: dose response, whole cell patch clamp, HEK cells expressing TRPC5, Rilu (3 μM). The protocol:
TRPC4, TRPC5, and TRPC6 inhibition assay: HEK293 whole-cell recordings Whole-cell patch clamp recording was performed 16 h after transfection. The bath solution contained (in mM): 140 NaCl, 5 KCl, 10 HEPES, 2 MgCl2, 2 CaCl2, 10 glucose with pH7.4 adjusted with NaOH. The intracellular solution contained (in mM): 140 KCl, 5 EGTA, 10 HEPES, 2 MgCl2 with pH7.4 adjusted with KOH. The patch pipettes were made using a two-step-protocol (P-97, Sutter Instrument). The pipette resistance was maintained between 4 to 8 MΩ. Once the whole-cell configuration was achieved, cells were clamped at a holding potential of −60 mV, and given a 50 ms ramp stimulation from −100 mV to +100 mV in every 5 s. All currents were filtered at 2 KHz (Axopatch 200B amplifier, Axon Instruments, Union City, Calif.) and digitized at 10 KHz for whole-cell recordings using Axon pCLAMP 10.4. Data were then analyzed using Clampfit 10.4 (Molecular Devices).
HEK293 cell culture and transfection: Transfection of HEK293 cells was carried out using Plus reagent (Invitrogen) and Lipofectamine (Invitrogen) according to standard protocols. For heterologous expression of TRP channels in HEK293 cells, 1 μg of TRPC5-GFP, TRPC6-GFP or TRPC4-GFP plasmids were used to transfect HEK293 cells in a 3.5 cm petri dish where cells were allowed to grow to 80% confluence. Electrophysiology was carried out after 16 h incubation.

Broadly, the IC50 is the concentration that inhibits the measured activity by half. Read a high IC50 as weaker potency. As for `c1ccc(Cn2c(NCc3ccco3)nc3ccccc32)cc1` [AC1903], the midpoint of inhibition, the IC50, lay at 14.7 µM. Under “30 μM, HEK cells expressing TRPC5”, the “block of riluzole-activated TRPC5 whole-cell current” value is reported as “blocked”.

As for `Cc1cc(N2CCCCC2)nc2ccccc12` [ML204, reference compound], the IC50 is 13.6 µM.

Source of the values: US11370769B2, “TRPC5 inhibitors and methods of using same” (BOARD OF REGENTS OF THE UNIVERSITY OF NEBRASKA, priority 2017, dated 2022).
